The record followed here is EP0685467A1, “NOVEL PYRIMIDINE DERIVATIVE AND MEDICINAL COMPOSITION” (NKK CORPORATION, priority 1993, dated 1995).

One series relates to rat aorta. Put plainly: Inhibitory activity of vasoconstriction: angiotensin II induced constriction of rat aorta rings (Magnus apparatus). The series is classed as cell-based. To be noted: constriction induced by 3 x 10⁻⁸ angiotensin II. Here is the method:
The applicability of the compound of the present invention was confirmed by the function to inhibit constriction of rat aorta induced by angiotensin II.
Stetharteries of Wistar male rats having body weights of 150 to 250 g (Japan Charles River Inc.) were excised. After the attached connective tissue was removed, the cavities of the veins were rubbed by yarn to remove the endothelial cells and prepare ring samples. The samples were suspended in a 5ml organ bath which was filled with Krebs-Henseleit solution (unit mM; NaCl = 118, KCl = 4.7, CaCl₂ = 2.55, MgSO₄ = 1.18, KH₂PO₄ = 1.18, NaHCO₃ = 24.88, glucose = 11.1) and held at 37°C and bubbled with 95% O₂-5% CO₂. After an initial tension of 1.5 g was applied and preincubation was carried out for 60 minutes, the compounds to be tested (3 x 10⁻⁸ or 1 x 10⁻⁸) were administered. After 15 minutes, 3 x 10⁻⁸ angiotensin II was accumulatively added and the reaction of constriction was measured. The rate of inhibition was evaluated by comparing the reaction of constriction, which had been previously measured, in the case of administration of 3 x 10⁻⁸ angiotensin II in the absence of the compounds to be tested.
The constriction of the samples was ionotropicaly measured using an isometric transducer (UL-10GR: Minebea) and amplifier (6M92: NEC SANEI) and recorded by a recticorder (RECTI-HORIZ-8K: NEC SANEI).

Another series deals with ICR male mice. Put plainly: Toxicity Example: intraperitoneal administration to mice. The series is classed as in vivo. To be noted: intraperitoneally, 500 mg/kg, 4- to 5-week-old ICR male mice. Here is the method: The compounds of Examples 3, 19, 20, or 23 were intraperitoneally administered to 4- to 5-week-old ICR male mice in an amount of 500 mg/kg.
For another series, the system named is ICR male and female mice. Put plainly: Toxicity Example: oral administration to mice. In kind it is in vivo. To be noted: orally, 1000 mg/kg, 6-week-old ICR male and female mice. Here is the method: The compounds of Examples 15, 19, or 47 were orally administered to 6-week-old ICR male and female mice in an amount of 1000 mg/kg.

As for `CCCCc1nc(C)cc(=O)n1Cc1ccc(-c2ccccc2-c2nnn[nH]2)cc1` [Comparative compound A, 2-butyl-6-methyl-3-[2'-(1H-tetrazol-5-yl)biphenyl-4-yl]methylpyrimidin-4-one, reference compound], the “Rate of inhibition (%)” value with rat aorta (compound 1 x 10⁻⁸ M) is 8%; in the series on rat aorta (compound 3 x 10⁻⁸ M), 37%.

For the compound `CCCCc1nc(C)c(Cc2ccccc2)c(=O)n1Cc1ccc(-c2ccccc2-c2nnn[nH]2)cc1` [Comparative compound B, 5-benzyl-2-butyl-6-methyl-3-[2'-(1H-tetrazol-5-yl)biphenyl-4-yl]methylpyrimidin-4-one, reference compound], the “Rate of inhibition (%)” value in the series with rat aorta (compound 1 x 10⁻⁸ M) is listed as 5%; in the series with rat aorta (compound 3 x 10⁻⁸ M) it was 32%.

Turning to `CCCc1nc(C)c(Cc2ccc(CO)cc2)c(=O)n1Cc1ccc(-c2ccccc2-c2nnn[nH]2)cc1` [Example 3, 5-(4-hydroxymethylbenzyl)-6-methyl-2-propyl-3-[2'-(1H-tetrazol-5-yl)biphenyl-4-yl]methylpyrimidin-4-one], the “Rate of inhibition (%)” value worked out at 78% in the series on rat aorta (compound 1 x 10⁻⁸ M) and 98% with rat aorta (compound 3 x 10⁻⁸ M). In the series with ICR male mice, the deaths entry is recorded as “No deaths were observed”.

Regarding `CCCc1nc(C)c(Cc2ccc(COC)cc2)c(=O)n1Cc1ccc(-c2ccccc2-c2nnn[nH]2)cc1` [Example 4, 5-(4-methoxymethylbenzyl)-6-methyl-2-propyl-3-[2'-(1H-tetrazol-5-yl)biphenyl-4-yl]methylpyrimidin-4-one], the results for the “Rate of inhibition (%)” value with rat aorta (compound 1 x 10⁻⁸ M) and with rat aorta (compound 3 x 10⁻⁸ M) were 36% and 94%, respectively.

Turning to `CCc1nc(C)c(Cc2cccc(CO)c2)c(OCc2ccc(-c3ccccc3-c3nnn[nH]3)cc2)n1` [Example 15, 2-ethyl-5-(3-hydroxymethylbenzyl)-6-methyl-4-[2'-(1H-tetrazol-5-yl)biphenyl-4-yl]methoxypyrimidine], in the series on ICR male and female mice, the deaths result is reported as “No deaths were observed”.

As to `CCCc1nc(C)c(Cc2cccc(CO)c2)c(=O)n1Cc1ccc(-c2ccccc2-c2nnn[nH]2)cc1` [Example 19, 5-(3-hydroxymethylbenzyl)-6-methyl-2-propyl-3-[2'-(1H-tetrazol-5-yl)biphenyl-4-yl]methylpyrimidin-4-one], the deaths result in the series with ICR male and female mice is given as “No deaths were observed”; with ICR male mice, “No deaths were observed”. Also, the “Rate of inhibition (%)” value with rat aorta (compound 1 x 10⁻⁸ M) and with rat aorta (compound 3 x 10⁻⁸ M) was 100% in each case.

With `CCCc1nc(C)c(Cc2cccc(COC)c2)c(=O)n1Cc1ccc(-c2ccccc2-c2nnn[nH]2)cc1` [Example 20, 5-(3-methoxymethylbenzyl)-6-methyl-2-propyl-3-[2'-(1H-tetrazol-5-yl)biphenyl-4-yl]methylpyrimidin-4-one], the “Rate of inhibition (%)” value with rat aorta (compound 1 x 10⁻⁸ M) and with rat aorta (compound 3 x 10⁻⁸ M) was 100% each time. The deaths entry with ICR male mice is “No deaths were observed”.

Regarding `CCCCc1nc(C)c(Cc2cccc(CO)c2)c(=O)n1Cc1ccc(-c2ccccc2-c2nnn[nH]2)cc1` [Example 23, 2-butyl-5-(3-hydroxymethylbenzyl)-6-methyl-3-[2'-(1H-tetrazol-5-yl)biphenyl-4-yl]methylpyrimidin-4-one], the “Rate of inhibition (%)” value is 95% in the series with rat aorta (compound 1 x 10⁻⁸ M) and 100% in the series on rat aorta (compound 3 x 10⁻⁸ M). Further, the deaths result with ICR male mice is listed as “No deaths were observed”.

Turning to `CCc1nc(C)nc(OCc2ccc(-c3ccccc3-c3nnn[nH]3)cc2)c1Cc1cccc(CO)c1` [Example 47, 6-ethyl-5-(3-hydroxymethylbenzyl)-2-methyl-4-[2'-(1H-tetrazol-5-yl)biphenyl-4-yl]methoxypyrimidine], the deaths result in the series on ICR male and female mice was “No deaths were observed”.
